Reference: ChEMBL document CHEMBL5614374, “Novel carbazole-oxadiazole derivatives as anti-α-glucosidase and anti-α-amylase agents: Design, synthesis, molecular docking, and biological evaluation” (Eur J Med Chem, 2024)
Calls of active or inactive are those of the source. The calls are words filed in the database; no cut-off is given here.

Tests used:
Alpha-glucosidase [1] = target: T1, Alpha-glucosidase (Saccharomyces cerevisiae S288c, UniProt P53341+P38158+P07265); assay: Inhibition of Saccharomyces cerevisiae alpha-glucosidase using p-nitrophenyl-alpha-D-glucopyranoside as substrate preincubated for 0.25 hrs followed by substrate addition and measured after 0.5 hrs by spectrophotometric analysis; assay type: protein assay
Alpha-amylase [2] = target: T2, Alpha-amylase (Sus scrofa domesticus, UniProt Q7M328); assay: Inhibition of hog pancreatic alpha-amylase using soluble starch as substrate preincubated for 10 mins followed by substrate addition and measured after 15 mins by absorbance based analysis
T2 sequence (Q7M328 whole entry): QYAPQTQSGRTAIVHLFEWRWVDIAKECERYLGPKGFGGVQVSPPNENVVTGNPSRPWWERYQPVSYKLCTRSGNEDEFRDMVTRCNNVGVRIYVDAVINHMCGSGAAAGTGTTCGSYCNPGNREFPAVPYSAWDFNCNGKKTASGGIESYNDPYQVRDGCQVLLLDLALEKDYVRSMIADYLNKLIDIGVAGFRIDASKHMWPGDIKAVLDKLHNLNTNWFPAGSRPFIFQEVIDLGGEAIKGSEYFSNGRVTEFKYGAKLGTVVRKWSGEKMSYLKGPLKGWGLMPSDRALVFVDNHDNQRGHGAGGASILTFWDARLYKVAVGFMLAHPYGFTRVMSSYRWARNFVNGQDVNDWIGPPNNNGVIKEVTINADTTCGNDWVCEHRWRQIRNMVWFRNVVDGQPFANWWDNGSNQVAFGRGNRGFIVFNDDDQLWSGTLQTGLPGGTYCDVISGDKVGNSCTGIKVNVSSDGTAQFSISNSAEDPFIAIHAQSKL

[3] = target: T3, Alpha-glucosidase (Saccharomyces cerevisiae S288c) (UniProt P53341+P38158+P07265); assay: Mixed-type inhibition of Saccharomyces cerevisiae alpha-glucosidase using p-nitrophenyl-alpha-D-glucopyranoside as substrate assessed as decrease in Km and Vmax upto 20 uM incubated for 7 mins by spectrophotometer based Lineweaver-Burk plot analysis; assay type: protein assay
Alpha-glucosidase [4] = target: T1, Alpha-glucosidase; assay: Inhibition of Saccharomyces cerevisiae alpha-glucosidase using p-nitrophenyl-alpha-D-glucopyranoside as substrate assessed as inhibition constant of enzyme-substrate complex incubated for 7 mins by spectrophotometer based Lineweaver-Burk plot analysis; assay type: protein assay
[5] = target: T3, Alpha-glucosidase (Saccharomyces cerevisiae S288c); assay: Inhibition of alpha-glucosidase (unknown origin) assessed as effect on secondary structure by measuring reduction in alpha-helix content at 5 uM by CD spectra (reference value: 32.1 %); assay type: protein assay; parameters: scale not given: the % may be the effect or the level left; conditions: Homo sapiens
[6] = target: T3, Alpha-glucosidase (Saccharomyces cerevisiae S288c); assay: Inhibition of alpha-glucosidase (unknown origin) assessed as effect on secondary structure by measuring reduction in alpha-helix content at 10 uM by CD spectra (reference value: 32.1 %); assay type: protein assay; parameters: scale not given: the % may be the effect or the level left; conditions: Homo sapiens
[7] = target: T3, Alpha-glucosidase (Saccharomyces cerevisiae S288c); assay: Inhibition of alpha-glucosidase (unknown origin) assessed as effect on secondary structure by measuring reduction in alpha-helix content at 20 uM by CD spectra (reference value: 32.1 %); assay type: protein assay; parameters: scale not given: the % may be the effect or the level left; conditions: Homo sapiens
[8] = target: T3, Alpha-glucosidase (Saccharomyces cerevisiae S288c); assay: Inhibition of alpha-glucosidase (unknown origin) assessed as effect on secondary structure by measuring reduction in alpha-helix content at 30 uM by CD spectra (reference value: 32.1 %); assay type: protein assay; parameters: scale not given: the % may be the effect or the level left; conditions: Homo sapiens
[9] = target: T3, Alpha-glucosidase (Saccharomyces cerevisiae S288c); assay: Inhibition of alpha-glucosidase (unknown origin) assessed as effect on secondary structure by measuring beta-sheet content at 5 uM by CD spectra (reference value: 18.1 %); assay type: protein assay; parameters: scale not given: the % may be the effect or the level left
[10] = target: T3, Alpha-glucosidase (Saccharomyces cerevisiae S288c); assay: Inhibition of alpha-glucosidase (unknown origin) assessed as effect on secondary structure by measuring beta-sheet content at 10 uM by CD spectra (reference value: 18.1 %); assay type: protein assay; parameters: scale not given: the % may be the effect or the level left
[11] = target: T3, Alpha-glucosidase (Saccharomyces cerevisiae S288c); assay: Inhibition of alpha-glucosidase (unknown origin) assessed as effect on secondary structure by measuring beta-sheet content at 20 uM by CD spectra (reference value: 18.1 %); assay type: protein assay; parameters: scale not given: the % may be the effect or the level left
[12] = target: T3, Alpha-glucosidase (Saccharomyces cerevisiae S288c); assay: Inhibition of alpha-glucosidase (unknown origin) assessed as effect on secondary structure by measuring beta-sheet content at 30 uM by CD spectra (reference value: 18.1 %); assay type: protein assay; parameters: scale not given: the % may be the effect or the level left
[13] = target: T3, Alpha-glucosidase (Saccharomyces cerevisiae S288c); assay: Inhibition of alpha-glucosidase (unknown origin) assessed as effect on secondary structure by measuring beta-turn content at 5 uM by CD spectra (reference value: 17.1 %); assay type: protein assay; parameters: scale not given: the % may be the effect or the level left; conditions: Homo sapiens
[14] = target: T3, Alpha-glucosidase (Saccharomyces cerevisiae S288c); assay: Inhibition of alpha-glucosidase (unknown origin) assessed as effect on secondary structure by measuring beta-turn content at 10 uM by CD spectra (reference value: 17.1 %); assay type: protein assay; parameters: scale not given: the % may be the effect or the level left
[15] = target: T3, Alpha-glucosidase (Saccharomyces cerevisiae S288c); assay: Inhibition of alpha-glucosidase (unknown origin) assessed as effect on secondary structure by measuring beta-turn content at 20 uM by CD spectra (reference value: 17.1 %); assay type: protein assay; parameters: scale not given: the % may be the effect or the level left
[16] = target: T3, Alpha-glucosidase (Saccharomyces cerevisiae S288c); assay: Inhibition of alpha-glucosidase (unknown origin) assessed as effect on secondary structure by measuring beta-turn content at 30 uM by CD spectra (reference value: 17.1 %); assay type: protein assay; parameters: scale not given: the % may be the effect or the level left
[17] = target: T3, Alpha-glucosidase (Saccharomyces cerevisiae S288c); assay: Inhibition of alpha-glucosidase (unknown origin) assessed as effect on secondary structure by measuring random coil content at 5 uM by CD spectra (reference value: 33.1 %); assay type: protein assay; parameters: scale not given: the % may be the effect or the level left; conditions: Homo sapiens
[18] = target: T3, Alpha-glucosidase (Saccharomyces cerevisiae S288c); assay: Inhibition of alpha-glucosidase (unknown origin) assessed as effect on secondary structure by measuring random coil content at 10 uM by CD spectra (reference value: 33.1 %); assay type: protein assay; parameters: scale not given: the % may be the effect or the level left; conditions: Homo sapiens
[19] = target: T3, Alpha-glucosidase (Saccharomyces cerevisiae S288c); assay: Inhibition of alpha-glucosidase (unknown origin) assessed as effect on secondary structure by measuring random coil content at 20 uM by CD spectra (reference value: 33.1 %); assay type: protein assay; parameters: scale not given: the % may be the effect or the level left
[20] = target: T3, Alpha-glucosidase (Saccharomyces cerevisiae S288c); assay: Inhibition of alpha-glucosidase (unknown origin) assessed as effect on secondary structure by measuring random coil content at 30 uM by CD spectra (reference value: 33.1 %); assay type: protein assay; parameters: scale not given: the % may be the effect or the level left; conditions: Homo sapiens
[21] = target: T3, Alpha-glucosidase (Saccharomyces cerevisiae S288c); assay: Inhibition of alpha-glucosidase (unknown origin) assessed as increase in enzyme particle size at 1 uM incubated for 15 mins by AFM imaging analysis; assay type: protein assay
[22] = target: T3, Alpha-glucosidase (Saccharomyces cerevisiae S288c); assay: Inhibition of alpha-glucosidase (unknown origin) assessed as increase in enzyme particle thickness at 1 uM incubated for 15 mins by AFM imaging analysis; assay type: protein assay
[23] = Cytotoxicity against HEK293 cells assessed as cell viability at 60 uM incubated for 1 day by MTT assay relative to control; assay type: toxicity, cell-based; conditions: human, read-out: Activity
[24] = Cytotoxicity against HEK293 cells incubated for 1 day by MTT assay; assay type: toxicity, cell-based; conditions: human
Mus musculus [25] = assay: Reduction in blood glucose concentration in male Kunming mouse at 20 mg/kg, IG preadministered for 40 mins followed by saccharose addition and measured after 30 mins by sucrose loading test; assay type: functional, organism-based; conditions: time 70.0 min
Mus musculus [26] = assay: Reduction in blood glucose concentration in male Kunming mouse assessed as decrease in AUC at 20 mg/kg, IG preadministered for 40 mins followed by saccharose addition and measured after 150 mins by sucrose loading test relative to control; assay type: functional; parameters: scale not given: the % may be the effect or the level left; conditions: time 190 min, 3.167 h
Alpha-glucosidase [27] = target: T1, Alpha-glucosidase; assay: Inhibition of Saccharomyces cerevisiae alpha-glucosidase using p-nitrophenyl-alpha-D-glucopyranoside as substrate assessed as inhibition constant of free alpha-glucosidase incubated for 7 mins by spectrophotometer based Lineweaver-Burk plot analysis; assay type: protein assay
[28] = target: T4, Alpha-amylase (Sus scrofa domesticus) (UniProt Q7M328); assay: Mixed-type inhibition of hog pancreatic alpha-amylase using soluble starch as substrate upto 35 uM preincubated for 10 mins followed by substrate addition and measured after 15 mins by Lineweaver-Burk plot analysis; conditions: time 25.0 min
T4 sequence (whole entry): T2 sequence (Q7M328 whole entry)

Alpha-amylase [29] = target: T2, Alpha-amylase; assay: Inhibition of hog pancreatic alpha-amylase using soluble starch as substrate assessed as inhibition constant of free alpha-amylase preincubated for 10 mins followed by substrate addition and measured after 15 mins by Lineweaver-Burk plot analysis
Alpha-amylase [30] = target: T2, Alpha-amylase; assay: Inhibition of hog pancreatic alpha-amylase using soluble starch as substrate assessed as inhibition constant of enzyme-substrate complex preincubated for 10 mins followed by substrate addition and measured after 15 mins by Lineweaver-Burk plot analysis
[31] = target: Alpha amylase (Homo sapiens) (UniProt P0DUB6); assay: Inhibition of alpha-amylase (unknown origin) assessed as increase in enzyme particle size at 50 uM incubated for 30 mins by AFM imaging analysis; assay type: protein assay
Chain of Alpha amylase (Homo sapiens) (P0DUB6 whole entry, looked up): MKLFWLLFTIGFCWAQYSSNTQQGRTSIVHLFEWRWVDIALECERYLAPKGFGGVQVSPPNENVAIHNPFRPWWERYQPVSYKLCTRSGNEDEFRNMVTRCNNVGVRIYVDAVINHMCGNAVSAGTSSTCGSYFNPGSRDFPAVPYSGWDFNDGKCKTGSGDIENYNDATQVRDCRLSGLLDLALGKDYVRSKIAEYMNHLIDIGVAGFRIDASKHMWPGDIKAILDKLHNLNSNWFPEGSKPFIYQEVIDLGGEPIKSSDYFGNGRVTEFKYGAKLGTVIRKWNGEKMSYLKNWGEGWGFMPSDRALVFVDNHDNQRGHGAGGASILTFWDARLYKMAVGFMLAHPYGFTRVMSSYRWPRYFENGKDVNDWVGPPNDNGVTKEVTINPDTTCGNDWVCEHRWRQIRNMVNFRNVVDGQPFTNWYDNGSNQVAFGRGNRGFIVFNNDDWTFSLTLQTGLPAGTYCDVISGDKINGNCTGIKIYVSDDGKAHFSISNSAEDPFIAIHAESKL

[32] = target: Alpha amylase (Homo sapiens) (UniProt P0DUB6); assay: Inhibition of alpha-amylase (unknown origin) assessed as increase in enzyme particle thickness at 50 uM incubated for 30 mins by AFM imaging analysis; assay type: protein assay

## CCOc1ccc(NC(=O)CSc2nnc(CCn3c4ccccc4c4ccccc43)o2)cc1
Alpha-glucosidase [1]
  IC50: 21.39 µM
Alpha-amylase [2]
  IC50: 61.5 µM
[3]
  inhibition: Active
Alpha-glucosidase [4]
  Ki: 13.19 µM
[5]
  Activity: 28.9%
[6]
  Activity: 28.5%
[7]
  Activity: 25.7%
[8]
  Activity: 25.1%
[9]
  Activity: 20%
[10]
  Activity: 20.3%
[11]
  Activity: 22.4%
[12]
  Activity: 22.9%
[13]
  Activity: 17.7%
[14]
  Activity: 17.8%
[15]
  Activity: 18.4%
[16]
  Activity: 18.5%
[17]
  Activity: 35.3%
[18]
  Activity: 36.1%
[19]
  Activity: 38.1%
[20]
  Activity: 38.8%
[21]
  inhibition: Active
[22]
  inhibition: Active
[23]
  viability at 24 h, 60 µM: 96.1%
[24]
  IC50 at 1 day: 193 µM
Mus musculus [25]
  Activity: Active
Mus musculus [26]
  Activity: 11.74%

## Cc1ccc(NC(=O)CSc2nnc(CCn3c4ccccc4c4ccccc43)o2)c([N+](=O)[O-])c1
Alpha-glucosidase [1]
  IC50: 67.35 µM
Alpha-amylase [2]
  IC50: 54.6 µM

## O=C(CSc1nnc(CCn2c3ccccc3c3ccccc32)o1)Nc1ccc(Oc2ccccc2)cc1
Alpha-glucosidase [1]
  IC50: 39.52 µM
Alpha-amylase [2]
  IC50: 74.8 µM

## O=C(CSc1nnc(CCn2c3ccccc3c3ccccc32)o1)Nc1ccc(Cl)cc1[N+](=O)[O-]
Alpha-glucosidase [1]
  IC50: 37.96 µM
Alpha-amylase [2]
  IC50: 89.7 µM

## COc1ccc(NC(=O)CSc2nnc(CCn3c4ccccc4c4ccccc43)o2)c([N+](=O)[O-])c1
Alpha-glucosidase [1]
  IC50: 85.95 µM
Alpha-amylase [2]
  IC50: 64.6 µM

## C[C@H]1O[C@H](O[C@H]2[C@H](O)[C@@H](O)[C@@H](O[C@H]3[C@H](O)[C@@H](O)C(O)O[C@@H]3CO)O[C@@H]2CO)[C@H](O)[C@@H](O)[C@@H]1N[C@H]1C=C(CO)[C@@H](O)[C@H](O)[C@H]1O (some centres undefined) [ACARBOSE]
Mus musculus [25]
  Activity: Active
Mus musculus [26]
  Activity: 28.57%

## O=C(CSc1nnc(CCn2c3ccccc3c3ccccc32)o1)Nc1ccc(Cl)cc1Cl
Alpha-glucosidase [1]
  IC50: 92.05 µM
Alpha-amylase [2]
  IC50: 94.3 µM

## Cc1ccc(NC(=O)CSc2nnc(CCn3c4ccccc4c4ccccc43)o2)cc1
Alpha-glucosidase [1]
  IC50: 80.64 µM
Alpha-amylase [2]
  IC50: 126 µM

## O=C(CSc1nnc(CCn2c3ccccc3c3ccccc32)o1)Nc1ccc([N+](=O)[O-])cc1
Alpha-glucosidase [1]
  IC50: 22.22 µM
Alpha-amylase [2]
  IC50: 86.3 µM

## O=C(CSc1nnc(CCn2c3ccccc3c3ccccc32)o1)Nc1ccc(F)cc1
Alpha-glucosidase [1]
  IC50: 27.73 µM
Alpha-amylase [2]
  IC50: 45.5 µM
Alpha-glucosidase [27]
  Ki: 22.04 µM
[28]
  inhibition: Active
Alpha-amylase [29]
  Ki: 45.1 µM
Alpha-amylase [30]
  Ki: 63.3 µM
[31]
  inhibition: Active
[32]
  inhibition: Active
[23]
  viability at 24 h, 60 µM: 90.3%
[24]
  IC50 at 1 day: 181 µM
Mus musculus [25]
  Activity: Active
Mus musculus [26]
  Activity: 10.66%

## Cc1ccc(NC(=O)CSc2nnc(CCn3c4ccccc4c4ccccc43)o2)c(C)c1
Alpha-glucosidase [1]
  IC50: > 300 µM
Alpha-amylase [2]
  IC50: 120 µM

## Cc1ccccc1NC(=O)CSc1nnc(CCn2c3ccccc3c3ccccc32)o1
Alpha-glucosidase [1]
  IC50: > 300 µM
Alpha-amylase [2]
  IC50: > 200 µM

## O=C(CSc1nnc(CCn2c3ccccc3c3ccccc32)o1)Nc1ccc(Cl)cc1
Alpha-glucosidase [1]
  IC50: 22.07 µM
Alpha-amylase [2]
  IC50: 83.2 µM

## Cc1cccc(NC(=O)CSc2nnc(CCn3c4ccccc4c4ccccc43)o2)c1
Alpha-glucosidase [1]
  IC50: 66.89 µM
Alpha-amylase [2]
  IC50: 81.2 µM

## O=C(CSc1nnc(CCn2c3ccccc3c3ccccc32)o1)Nc1ccccc1
Alpha-glucosidase [1]
  IC50: 43.26 µM
Alpha-amylase [2]
  IC50: 56.2 µM
